“Also recorded” adds a separate entry of the source.
What was measured:
[1] = Pharmacokinetics of ERr 731 ingredients in a subject (plasma LC-MS/MS); type: in vivo, human; conditions: 40 mg ERr 731 orally (10 tablets)
Description: Subsequently, 10 ml of blood was taken at various times (as indicated in FIG. 1) and the plasma was obtained by centrifugation.
These plasma samples were processed as follows: 500 μl of plasma were mixed with 25 μl of an internal standard working solution (2.5 ng/μl rhaponticin or rhapontigenin in methanol) and then mixed with 500 μl of isotonic NaCl solution and 2.5 ml of diethyl ether/butanol (9/1; v/v). After shaking and centrifugation (10 minutes at 4600 rpm), about 2 ml of the supernatant were removed and dried under a stream of nitrogen (at 60° C.). The pellet was taken up in 50 μl of methanol. Addition of 200 μl of distilled water was followed by renewed mixing, and 200 μl were pipetted into autosampler tubes (light-protected). 30 μl of the samples were injected for analysis into an LC-MS/MS system (PE Sciex API 3000). Chromatographic separation of the analytes took place on a Phenomenex Polymer X column with a gradient of an ammonium buffer solution and an acetonitrile/methanol mixture as mobile phase.

[2] = pH-dependent solubility of rhaponticin in aqueous solutions; type: physicochemical; conditions: acidic pH range (pH 3.4-3.6)
From the text: Use is made of this for its isolation. Since, besides other organic acids, the root in particular has a high content of oxalic acid (⅔ in water-soluble and ⅓ in bound form), this must be neutralized during the isolation in order to prevent the pH drifting into the acidic range and thus to inhibit premature precipitation of the rhaponticin. This is achieved by using calcium oxide. The latter is employed as quicklime solution with a pH of 12.4-12.6.

[3] = Dissolving tests with ERr 731 in ethanol and glycerol; type: physicochemical
Description: a) Dissolving Tests with ERr 731® in Ethanol and Glycerol:
Test A: 200 mg of dry extract in 50 ml of glycerol R:
Test B: 200 mg of dry extract in 50 ml of ethanol 30% R:
Test C: 200 mg of dry extract in 50 ml of ethanol 50% R:
Test D: 200 mg of dry extract in 50 ml of ethanol 86% R: […]

[4] = target: T1, estrogen receptor β (ERβ) (Homo sapiens, UniProt Q92731); test: ERβ/mC3-luciferase transactivation in HEC-1B cells; type: cell-based; conditions: 24 hours incubation, FIG. 5
T1 construct: expressed in transfected cells; host or cells: HEC-1B cells (human endometrial adenocarcinoma; no endogenous ERα or ERβ), transient transfection with DOTAP
From the text: They therefore represent a possible way of investigating, in a human and endometrial context, ligand-dependent effects of substances on the transactivation mechanisms in relation to different receptor subtypes and different estrogen-responsive promoters.
An established ERβ/mC3-luciferase system was employed. For this purpose, HEC-1B cells were applied in 24-well plates with a density of 95 000 cells/well (in Dulbecco's modified Essential Medium (DMEM/F12)). The next day, they were cotransfected with an ERβ-containing construct (hERβ/pSG2) and a triple-ERE-containing promoter/luciferase construct (mC3-Luc/pGL2) (Hillisch et al. Dissecting physiological roles of estrogen receptor alpha and beta with potent selective ligands from structure-based design. Mol Endocrinol. 2004 July; 18:1599-609). The transient transfection took place using DOTAP (N-[1-(2,3-dioleoyloxy)]-N,N,N-trimethylammoniumpropane methyl-sulfate, Roth) as described by the manufacturer.
After 24 hours, the cells were treated with appropriate concentrations of the substances or substance mixtures to be investigated. […] The incubation time was 24 hours. The cells were then lysed. The Luciferase Assay® kit (Promega) was used to determine the luciferase activity on the one hand, and the BCA® kit (Sigma) was used to determine the protein content on the other hand. […]

[5] = Test A: 200 mg of dry extract in 50 ml of glycerol R
[6] = Test B: 200 mg of dry extract in 50 ml of ethanol 30% R
[7] = Test C: 200 mg of dry extract in 50 ml of ethanol 50% R
[8] = Test D: 200 mg of dry extract in 50 ml of ethanol 86% R

T1 sequence (Q92731 whole entry): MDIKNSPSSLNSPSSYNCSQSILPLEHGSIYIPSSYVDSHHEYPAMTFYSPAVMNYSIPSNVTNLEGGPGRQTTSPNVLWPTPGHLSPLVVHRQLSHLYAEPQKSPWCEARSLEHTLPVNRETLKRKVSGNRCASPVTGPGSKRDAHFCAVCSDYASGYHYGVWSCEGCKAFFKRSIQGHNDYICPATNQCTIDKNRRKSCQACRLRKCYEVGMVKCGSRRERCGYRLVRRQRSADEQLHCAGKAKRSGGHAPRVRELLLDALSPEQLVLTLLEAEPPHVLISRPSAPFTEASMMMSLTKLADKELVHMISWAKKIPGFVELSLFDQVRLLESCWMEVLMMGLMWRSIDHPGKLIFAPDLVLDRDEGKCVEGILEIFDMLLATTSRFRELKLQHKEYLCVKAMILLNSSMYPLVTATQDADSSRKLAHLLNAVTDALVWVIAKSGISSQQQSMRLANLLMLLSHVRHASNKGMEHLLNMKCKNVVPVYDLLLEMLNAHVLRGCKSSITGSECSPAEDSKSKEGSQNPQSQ

SMILES	detection in the blood [1]	time of maximum in the blood [1]	solubility in aqueous solutions [2]	content dissolved [3, 5]	content dissolved relative to theory [3, 5]	content dissolved [3, 6]	content dissolved relative to theory [3, 6]	content dissolved [3, 7]	content dissolved relative to theory [3, 7]	content dissolved [3, 8]	content dissolved relative to theory [3, 8]	activation of ERβ (relative luciferase activity vs DMSO control) [4]
COc1ccc(C=Cc2cc(O)cc(O[C@@H]3O[C@H](CO)[C@@H](O)[C@H](O)[C@H]3O)c2)cc1O [rhaponticin, 3,3′,5-Trihydroxy-4′-methoxystilbene 3-O-β-D-glucopyranoside]	detected in the blood	3 to 4 h	precipitated as yellowish substance	55.1% rhaponticin	(89.0% of theory)	52.2% rhaponticin	(84.3% of theory)	58.8% rhaponticin	(95.0% of theory)	59.8% rhaponticin	(96.6% of theory)	
COc1ccc(C=Cc2cc(O)cc(O[C@@H]3O[C@H](CO)[C@@H](O)[C@H](O)[C@H]3O)c2)cc1 [deoxyrhaponticin]				27.1% deoxyrhaponticin	(90.6% of theory)	25.2% deoxyrhaponticin	(84.2% of theory)	29.0% deoxyrhaponticin	(97.0% of theory)	29.5% deoxyrhaponticin	(98.7% of theory)	
COc1ccc(C=Cc2cccc(O)c2)cc1O [deoxyrhapontigenin, 3′,5-Dihydroxy-4′-methoxystilbene]												activate the ERβ dose-dependently; also recorded: effective only at higher concentrations

— patent US8168220B2, “Dosage forms of active ingredients containing hydroxystilbene for treating menopausal complaints” (priority 2005, dated 2012)
